Assay results reported in ChEMBL document CHEMBL1201862, “PubChem BioAssay data set” (2004).
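Dose response: 5 concentrations. Exposure: 48 h. Format: 96-well plates. Endpoint: linear interpolation; highest concentration if not reached. GI50 is the concentration that inhibits growth by half.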 The source made the active and inactive calls. No stated cut-off is given here; in the data, active = GI50 up to about 1.1 µM and inactive = higher.

Tests used:
Experiment in all cases: inhibition of tumour cell growth, NCI panel, 48 h
HCT-15 = system: HCT-15
Hs-578T = system: Hs-578T
CCRF-CEM = system: CCRF-CEM
UACC-62 = system: UACC-62
RPMI-8226 = system: RPMI-8226
SW-620 = system: SW-620
CAKI-1 = system: CAKI-1
IGROV-1 = system: IGROV-1
OVCAR-3 = system: OVCAR-3
DU-145 = system: DU-145
NCI-H460 = system: NCI-H460
T47D = system: T47D
SN12C = system: SN12C
A549 = system: A549
KM12 = system: KM12
786-0 = system: 786-0
SNB-19 = system: SNB-19
SK-MEL-28 = system: SK-MEL-28
SF-539 = system: SF-539
HCT-116 = system: HCT-116

Compound: CC1(C)[C@H]2Cc3cc4nc5ccccn5c4cc3[C@@H]1C2
- GI50 (HCT-15): 19.2 µM
- GI50 (Hs-578T): 15.6 µM (inactive)
- GI50 (CCRF-CEM): 31.3 µM (inactive)
- GI50 (UACC-62): 15.6 µM (inactive)
- GI50 (RPMI-8226): 14.5 µM (inactive)
- GI50 (SW-620): 20.8 µM (inactive)
- GI50 (CAKI-1): 14.1 µM (inactive)
- GI50 (IGROV-1): 19 µM (inactive)
- GI50 (OVCAR-3): 17.5 µM (inactive)
- GI50 (DU-145): 20.8 µM (inactive)
- GI50 (NCI-H460): 18.4 µM (inactive)
- GI50 (T47D): 20.7 µM (inactive)
- GI50 (SN12C): 19.2 µM (inactive)
- GI50 (A549): 16.4 µM (inactive)
- GI50 (KM12): 18.6 µM (inactive)
- GI50 (786-0): 17.2 µM (inactive)
- GI50 (SNB-19): 16 µM (inactive)
- GI50 (SK-MEL-28): 16 µM (inactive)
- GI50 (SF-539): 16.4 µM (inactive)
- GI50 (HCT-116): 17.5 µM (inactive)

Compound: COc1cccc(/N=N/C(=N/NC(=O)c2cc(Cl)ccc2O)c2ccc(N(CCC#N)CCC#N)cc2C)c1
- GI50 (HCT-15): 33.3 µM
- GI50 (Hs-578T): 33.2 µM (inactive)
- GI50 (CCRF-CEM): 15.3 µM (inactive)
- GI50 (UACC-62): 44.6 µM (inactive)
- GI50 (RPMI-8226): 61.2 µM (inactive)
- GI50 (CAKI-1): 48.3 µM (inactive)
- GI50 (IGROV-1): 23.3 µM (inactive)
- GI50 (OVCAR-3): 2.06 µM (inactive)
- GI50 (DU-145): 43.4 µM (inactive)
- GI50 (NCI-H460): 32.7 µM (inactive)
- GI50 (T47D): 7.35 µM (inactive)
- GI50 (SN12C): 27.5 µM (inactive)
- GI50 (A549): 62.1 µM (inactive)
- GI50 (KM12): 28.5 µM (inactive)
- GI50 (786-0): 43.3 µM (inactive)
- GI50 (SNB-19): 53.5 µM (inactive)
- GI50 (SF-539): 18.4 µM (inactive)
- GI50 (HCT-116): 18.8 µM (inactive)

Compound: O=C1/C(=C\c2c(-c3ccccc3)[nH]n(-c3ccccc3)c2=O)C(c2ccccc2)=NN1c1ccccc1
- GI50 (HCT-15): > 100 µM
- GI50 (Hs-578T): > 100 µM (inactive)
- GI50 (CCRF-CEM): 79.4 µM (inactive)
- GI50 (UACC-62): > 100 µM (inactive)
- GI50 (RPMI-8226): > 100 µM (inactive)
- GI50 (SW-620): > 100 µM (inactive)
- GI50 (CAKI-1): > 100 µM (inactive)
- GI50 (IGROV-1): > 100 µM (inactive)
- GI50 (OVCAR-3): > 100 µM (inactive)
- GI50 (DU-145): > 100 µM (inactive)
- GI50 (NCI-H460): > 100 µM (inactive)
- GI50 (T47D): > 100 µM (inactive)
- GI50 (SN12C): > 100 µM (inactive)
- GI50 (A549): > 100 µM (inactive)
- GI50 (KM12): > 100 µM (inactive)
- GI50 (786-0): > 100 µM (inactive)
- GI50 (SNB-19): > 100 µM (inactive)
- GI50 (SK-MEL-28): > 100 µM (inactive)
- GI50 (SF-539): > 100 µM (inactive)
- GI50 (HCT-116): > 100 µM (inactive)

Compound: C=C1C(=O)[C@@]23CC[C@@H]4[C@@]5(C)CCC[C@@]4(OC5=O)C2(C)CC[C@]1(OC)C3 (some centres undefined)
- GI50 (HCT-15): 0.581 µM
- GI50 (Hs-578T): 1.96 µM (inactive)
- GI50 (CCRF-CEM): 0.0605 µM (active)
- GI50 (UACC-62): 1.35 µM (inactive)
- GI50 (RPMI-8226): 0.205 µM (active)
- GI50 (SW-620): 0.718 µM (active)
- GI50 (CAKI-1): 1.75 µM (inactive)
- GI50 (IGROV-1): 1.97 µM (inactive)
- GI50 (OVCAR-3): 1.01 µM (active)
- GI50 (DU-145): 4.41 µM (inactive)
- GI50 (NCI-H460): 1.93 µM (inactive)
- GI50 (T47D): 1.39 µM (inactive)
- GI50 (SN12C): 1.73 µM (inactive)
- GI50 (A549): 3.27 µM (inactive)
- GI50 (KM12): 2.32 µM (inactive)
- GI50 (786-0): 0.279 µM (active)
- GI50 (SNB-19): 1.83 µM (inactive)
- GI50 (SK-MEL-28): 1.65 µM (inactive)
- GI50 (SF-539): 1.57 µM (inactive)
- GI50 (HCT-116): 0.423 µM (active)

Compound: O=C(c1ccccc1)C1N=NCC1c1ccc([N+](=O)[O-])cc1 (centres undefined)
- GI50 (HCT-15): 45.8 µM
- GI50 (Hs-578T): 34.8 µM (inactive)
- GI50 (CCRF-CEM): 0.935 µM (active)
- GI50 (UACC-62): 49.4 µM (inactive)
- GI50 (RPMI-8226): 29.9 µM (inactive)
- GI50 (SW-620): > 100 µM (inactive)
- GI50 (CAKI-1): 15 µM (inactive)
- GI50 (OVCAR-3): 17.1 µM (inactive)
- GI50 (DU-145): 18.4 µM (inactive)
- GI50 (NCI-H460): 38.1 µM (inactive)
- GI50 (T47D): 3.91 µM (inactive)
- GI50 (SN12C): > 100 µM (inactive)
- GI50 (A549): 37.2 µM (inactive)
- GI50 (KM12): 45.4 µM (inactive)
- GI50 (786-0): > 100 µM (inactive)
- GI50 (SNB-19): 54.8 µM (inactive)
- GI50 (SK-MEL-28): 61.5 µM (inactive)
- GI50 (SF-539): 58.3 µM (inactive)
- GI50 (HCT-116): 51.8 µM (inactive)

Compound: CC1=C(C#N)C(C#N)(C#N)C(NN(C)C)C1 (centres undefined)
- GI50 (HCT-15): 7.38 µM
- GI50 (Hs-578T): > 100 µM (inactive)
- GI50 (CCRF-CEM): 3.59 µM (inactive)
- GI50 (UACC-62): 15.9 µM (inactive)
- GI50 (RPMI-8226): 10.9 µM (inactive)
- GI50 (SW-620): 17.3 µM (inactive)
- GI50 (CAKI-1): 1.71 µM (inactive)
- GI50 (IGROV-1): 17.8 µM (inactive)
- GI50 (DU-145): 15.7 µM (inactive)
- GI50 (T47D): 6.15 µM (inactive)
- GI50 (SN12C): 14.1 µM (inactive)
- GI50 (A549): 41.5 µM (inactive)
- GI50 (KM12): 16.6 µM (inactive)
- GI50 (786-0): 8.99 µM (inactive)
- GI50 (SNB-19): > 10 µM (inactive)
- GI50 (SK-MEL-28): 23 µM (inactive)
- GI50 (SF-539): 36.1 µM (inactive)
- GI50 (HCT-116): 11 µM (inactive)

Compound: NC(=O)C(=CNC(=S)c1ccncc1)C(N)=O
- GI50 (HCT-15): > 100 µM
- GI50 (Hs-578T): > 100 µM (inactive)
- GI50 (CCRF-CEM): > 100 µM (inactive)
- GI50 (UACC-62): > 100 µM (inactive)
- GI50 (RPMI-8226): > 100 µM (inactive)
- GI50 (SW-620): > 100 µM (inactive)
- GI50 (CAKI-1): > 100 µM (inactive)
- GI50 (IGROV-1): > 100 µM (inactive)
- GI50 (OVCAR-3): > 100 µM (inactive)
- GI50 (DU-145): > 100 µM (inactive)
- GI50 (NCI-H460): > 100 µM (inactive)
- GI50 (T47D): > 100 µM (inactive)
- GI50 (SN12C): > 100 µM (inactive)
- GI50 (A549): > 100 µM (inactive)
- GI50 (KM12): > 100 µM (inactive)
- GI50 (786-0): > 100 µM (inactive)
- GI50 (SNB-19): > 100 µM (inactive)
- GI50 (SF-539): > 100 µM (inactive)
- GI50 (HCT-116): > 100 µM (inactive)
